Assay results published in ChEMBL document CHEMBL4732221, “Design, synthesis and bioactivity evaluation of novel pyrazole linked phenylthiazole derivatives in context of antibacterial activity” (Bioorg Med Chem Lett, 2021).
In brackets after ≈: the same amount, converted by molar mass. Activity calls are given as the source filed them. The calls are words filed in the database; no cut-off is given here.

What was measured:
Type in all cases: functional
[1] = tested on: Acinetobacter baumannii; experiment: Antibacterial activity against Acinetobacter baumannii ATCC 19606 assessed as growth inhibition at 32 ug/ml after 18 hrs by monochromator plate assay relative to control; settings: for inhibition: dose 32.0 µg/ml
[2] = tested on: Escherichia coli; experiment: Antibacterial activity against Escherichia coli ATCC 25922 assessed as growth inhibition after 18 hrs by monochromator plate assay
[3] = tested on: Klebsiella pneumoniae; experiment: Antibacterial activity against Klebsiella pneumoniae ATCC 700603 assessed as growth inhibition at 32 ug/ml after 18 hrs by microplate reader assay relative to control; settings: for inhibition: dose 32.0 µg/ml
[4] = tested on: Pseudomonas aeruginosa; experiment: Antibacterial activity against Pseudomonas aeruginosa ATCC 27853 assessed as growth inhibition at 32 ug/ml after 18 hrs by monochromator plate assay relative to control
[5] = tested on: Staphylococcus aureus; experiment: Antibacterial activity against methicillin-resistant Staphylococcus aureus ATCC 43300 assessed as growth inhibition after 18 hrs by monochromator plate assay
[6] = tested on: Cryptococcus neoformans; experiment: Antifungal activity against Cryptococcus neoformans var. grubii ATCC 208821) assessed as growth inhibition after 36 hrs by monochromator plate assay relative to control
[7] = tested on: Escherichia coli; experiment: Antibacterial activity against Escherichia coli ATCC 25922 assessed as growth inhibition at 32 ug/ml after 18 hrs by monochromator plate assay relative to control; settings: for inhibition: dose 32.0 µg/ml
[8] = tested on: Candida albicans; experiment: Antifungal activity against Candida albicans ATCC 90028 assessed as growth inhibition after 36 hrs by monochromator plate assay
[9] = tested on: Cryptococcus neoformans; experiment: Antifungal activity against Cryptococcus neoformans var. grubii ATCC 208821 assessed as growth inhibition at 32 ug/ml after 36 hrs by monochromator plate assay relative to control; settings: dose 32.0 µg/ml
[10] = tested on: Candida albicans; experiment: Antifungal activity against Candida albicans ATCC 90028 assessed as growth inhibition at 32 ug/ml after 36 hrs by monochromator plate assay relative to control; settings: for inhibition: dose 32.0 µg/ml
[11] = tested on: Pseudomonas aeruginosa; experiment: Antibacterial activity against Pseudomonas aeruginosa ATCC 27853 assessed as growth inhibition after 18 hrs by monochromator plate assay
[12] = tested on: Staphylococcus aureus; experiment: Antibacterial activity against methicillin-resistant Staphylococcus aureus ATCC 43300 assessed as growth inhibition at 32 ug/ml after 18 hrs by monochromator plate assay relative to control
[13] = tested on: Acinetobacter baumannii; experiment: Antibacterial activity against Acinetobacter baumannii ATCC 19606 assessed as growth inhibition after 18 hrs by monochromator plate assay
[14] = tested on: Klebsiella pneumoniae; experiment: Antibacterial activity against Klebsiella pneumoniae ATCC 700603 assessed as growth inhibition after 18 hrs by monochromator plate assay

Row | SMILES | inhibition at 32 µg/mL [1] | MIC [2] | inhibition at 32 µg/mL [3] | inhibition at 32 µg/mL [4] | MIC [5] | MIC [6] | inhibition [7] | MIC [8] | inhibition [9] | inhibition at 32 µg/mL [10] | MIC [11] | inhibition at 32 µg/mL [12] | MIC [13] | MIC [14] | inhibition [10] | inhibition [1] | inhibition [3] | inhibition ([12]; dose 32.0 µg/ml) | inhibition ([4]; dose 32.0 µg/ml) | inhibition at 32 µg/mL [7]
1 | Cc1nc(-c2ccc(I)cc2)sc1-c1cc(C(=O)NN2CCOCC2)n[nH]1 | 2.8% | inactive | 8.4% | 10.1% | > 32 µg/mL | inactive | inactive | > 32 µg/mL | inactive | 3.5% | > 32 µg/mL | 15.7% | > 32 µg/mL | > 32 µg/mL |  |  |  |  |  | 
2 | Cc1nc(-c2ccc(-c3ccccc3)cc2)sc1-c1cc(C(=O)NC2CCCCC2)n[nH]1 | 2.9% | inactive | 6.9% | 6.6% | > 32 µg/mL | inactive | inactive | inactive | inactive |  | > 32 µg/mL | 84.9% | > 32 µg/mL | > 32 µg/mL | inactive |  |  |  |  | 
3 | Cc1nc(-c2ccc(-c3cccc4ccccc34)cc2)sc1-c1cc(C(=O)NC2CCCCC2)n[nH]1 |  | inactive |  | 6.1% | > 32 µg/mL | inactive | inactive | > 32 µg/mL | inactive | 40.8% | > 32 µg/mL | 19.4% | inactive | inactive |  | inactive | inactive |  |  | 
4 | COC(=O)c1cc(-c2sc(-c3ccc(I)cc3)nc2C)[nH]n1 | 4.9% | inactive |  | 6.6% | > 32 µg/mL | inactive | inactive | > 32 µg/mL | inactive | 5.1% | > 32 µg/mL | 14.2% | > 32 µg/mL | inactive |  |  | inactive |  |  | 
5 | Cc1nc(-c2ccc(-c3ccccc3)cc2)sc1-c1cc(C(=O)Nc2ccc(C(F)(F)F)cc2)n[nH]1 |  | inactive | 0.8% | 2.8% | > 32 µg/mL | inactive | inactive | > 32 µg/mL | inactive | 4.3% | > 32 µg/mL | 9.9% | inactive | > 32 µg/mL |  | inactive |  |  |  | 
6 | Cc1ccc(-c2ccc(-c3nc(C)c(-c4cc(C(=O)NC5CCCCC5)n[nH]4)s3)cc2)cc1 | 4.3% | inactive | 12.2% | 16.5% | > 32 µg/mL | inactive | inactive | > 32 µg/mL | inactive | 18.9% | > 32 µg/mL | 23.8% | > 32 µg/mL | > 32 µg/mL |  |  |  |  |  | 
7 | CCOC(=O)c1cc(-c2sc(-c3ccc(I)cc3)nc2C)[nH]n1 | 6.6% | inactive | 15.1% | 16.6% | > 32 µg/mL | inactive | inactive | > 32 µg/mL | inactive | 7.8% | > 32 µg/mL | 16.4% | > 32 µg/mL | > 32 µg/mL |  |  |  |  |  | 
8 | CN[C@H](CC(C)C)C(=O)N[C@H]1C(=O)N[C@@H](CC(N)=O)C(=O)N[C@H]2C(=O)N[C@H]3C(=O)N[C@H](C(=O)N[C@H](C(=O)O)c4cc(O)cc(O)c4-c4cc3ccc4O)[C@H](O)c3ccc(c(Cl)c3)Oc3cc2cc(c3O[C@@H]2O[C@H](CO)[C@@H](O)[C@H](O)[C@H]2O[C@H]2C[C@](C)(N)[C@H](O)[C@H](C)O2)Oc2ccc(cc2Cl)[C@H]1O |  |  |  |  |  |  |  |  |  |  |  |  |  |  |  |  |  | inactive |  | 
9 | Cc1ccc(NC(=O)c2cc(-c3sc(-c4ccc(-c5ccccc5)cc4)nc3C)[nH]n2)cc1C |  | inactive | 3.5% | 2.2% | > 32 µg/mL | inactive | inactive | > 32 µg/mL | inactive | 10.1% | > 32 µg/mL | 10.8% | inactive | > 32 µg/mL |  | inactive |  |  |  | 
10 | Cc1nc(-c2ccc(-c3ccccc3)cc2)sc1-c1cc(C(=O)Nc2ccc(F)cc2)n[nH]1 | 3% | inactive | 4.4% | 5.1% | > 32 µg/mL | inactive | inactive | > 32 µg/mL | inactive | 19.6% | > 32 µg/mL | 15.1% | > 32 µg/mL | > 32 µg/mL |  |  |  |  |  | 
11 | Cc1cccc(-c2ccc(-c3nc(C)c(-c4cc(C(=O)NC5CCCCC5)n[nH]4)s3)cc2)c1C |  | inactive |  | 7.1% | 32 µg/mL (≈ 68 µM) | inactive | inactive | > 32 µg/mL | inactive | 6.1% | > 32 µg/mL | 7.2% | inactive | inactive |  | inactive | inactive |  |  | 
12 | Cc1nc(-c2ccc(I)cc2)sc1-c1cc(C(=O)Nc2ccccc2)n[nH]1 |  | inactive | 4.7% | 11.1% | > 32 µg/mL | inactive | inactive | > 32 µg/mL | inactive | 4.6% | > 32 µg/mL | 19% | inactive | > 32 µg/mL |  | inactive |  |  |  | 
13 | CCCCc1ccc(NC(=O)c2cc(-c3sc(-c4ccc(-c5ccccc5)cc4)nc3C)[nH]n2)cc1 | 4.1% | inactive | 3.3% | 5.6% | > 32 µg/mL | inactive | inactive | > 32 µg/mL | inactive | 13.5% | > 32 µg/mL | 9.5% | > 32 µg/mL | > 32 µg/mL |  |  |  |  |  | 
14 | Cc1nc(-c2ccc(I)cc2)sc1-c1cc(C(=O)O)n[nH]1 | 6.6% | > 32 µg/mL | 12% |  | > 32 µg/mL | inactive |  | > 32 µg/mL | inactive | 25.5% | inactive | 31.8% | > 32 µg/mL | > 32 µg/mL |  |  |  |  | inactive | 27.5%
15 | Cc1nc(-c2ccc(I)cc2)sc1-c1cc(C(=O)NC2CCCCC2)n[nH]1 |  | inactive | 6.9% | 17.8% | > 32 µg/mL | inactive | inactive | > 32 µg/mL | inactive | 40.5% | > 32 µg/mL | 12.9% | inactive | > 32 µg/mL |  | inactive |  |  |  | 
16 | CCOC(=O)c1cc(-c2sc(-c3ccc(-c4ccccc4)cc3)nc2C)[nH]n1 | 2.8% | inactive |  | 1.5% | > 32 µg/mL | inactive | inactive | > 32 µg/mL | inactive | 5.6% | > 32 µg/mL | 13.6% | > 32 µg/mL | inactive |  |  | inactive |  |  | 
17 | Cc1nc(-c2ccc(-c3ccccc3)cc2)sc1-c1cc(C(=O)Nc2ccc(C(C)(C)C)cc2)n[nH]1 | 3% | inactive | 5.2% | 2.2% | > 32 µg/mL | inactive | inactive | > 32 µg/mL | inactive | 5.2% | > 32 µg/mL | 13.2% | > 32 µg/mL | > 32 µg/mL |  |  |  |  |  | 
18 | OC(Cn1cncn1)(Cn1cncn1)c1ccc(F)cc1F [FLUCONAZOLE] |  |  |  |  |  | 8 µg/mL (≈ 26.1 µM) |  | 0.125 µg/mL (≈ 0.408 µM) | inactive |  |  |  |  |  | inactive |  |  |  |  | 
